The values that follow come from US20260092071A1, “COMPOUNDS AND COMPOSITIONS AS SMARCA2/4 DEGRADERS AND USES THEREOF” (REGENTS OF THE UNIVERSITY OF MICHIGAN, priority 2022, published 2026).

The target in one assay is SMARCA2 (Homo sapiens, UniProt P51531). Put plainly: HiBit assay in engineered HT1080 CRISPR knock-in cell, 6 hrs (B series), SMARCA2. The following applies: 6 hrs incubation; for DC50: read-out: SMARC A2 HT1080 HiBit DC50; for Dmax: HT-1080, HT1080 CRISPR knock-in cells, read-out: SMARC A2 HT1080 HiBit Dmax (%). Format: cell-based. The essentials:
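HT1080 CRISPR knock-in cells carrying HiBiT-tagged SMARCA2 seeded onto compound (0.1% DMSO) at 2000 cells/well. Incubated 6 h at 37 °C, 5% CO2, then lysed with Nano-Glo HiBiT lytic reagent containing LgBiT, and luminescence read.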

A further assay concerns the target SMARCA4 (Homo sapiens, UniProt P51532). Put plainly: HiBit assay in engineered HT1080 CRISPR knock-in cell, 6 hrs (B series), SMARCA4. The format is cell-based. To be noted: 6 hrs incubation; for DC50: read-out: SMARC A4 HT1080 HiBit DC50; for Dmax: HT-1080, HT1080 CRISPR knock-in cells, read-out: SMARC A4 HT1080 HiBit Dmax(%). The essentials: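 HT1080 CRISPR knock-in cells carrying the HiBiT tag were seeded onto compounds (final DMSO 0.1%) and incubated 6 hrs at 37° C, 5% CO2. Remaining tagged protein was detected by lytic HiBiT luminescence after adding LgBiT protein and substrate, with LgBiT-free wells serving as negative control.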

Chain of SMARCA4 (P51532 whole entry): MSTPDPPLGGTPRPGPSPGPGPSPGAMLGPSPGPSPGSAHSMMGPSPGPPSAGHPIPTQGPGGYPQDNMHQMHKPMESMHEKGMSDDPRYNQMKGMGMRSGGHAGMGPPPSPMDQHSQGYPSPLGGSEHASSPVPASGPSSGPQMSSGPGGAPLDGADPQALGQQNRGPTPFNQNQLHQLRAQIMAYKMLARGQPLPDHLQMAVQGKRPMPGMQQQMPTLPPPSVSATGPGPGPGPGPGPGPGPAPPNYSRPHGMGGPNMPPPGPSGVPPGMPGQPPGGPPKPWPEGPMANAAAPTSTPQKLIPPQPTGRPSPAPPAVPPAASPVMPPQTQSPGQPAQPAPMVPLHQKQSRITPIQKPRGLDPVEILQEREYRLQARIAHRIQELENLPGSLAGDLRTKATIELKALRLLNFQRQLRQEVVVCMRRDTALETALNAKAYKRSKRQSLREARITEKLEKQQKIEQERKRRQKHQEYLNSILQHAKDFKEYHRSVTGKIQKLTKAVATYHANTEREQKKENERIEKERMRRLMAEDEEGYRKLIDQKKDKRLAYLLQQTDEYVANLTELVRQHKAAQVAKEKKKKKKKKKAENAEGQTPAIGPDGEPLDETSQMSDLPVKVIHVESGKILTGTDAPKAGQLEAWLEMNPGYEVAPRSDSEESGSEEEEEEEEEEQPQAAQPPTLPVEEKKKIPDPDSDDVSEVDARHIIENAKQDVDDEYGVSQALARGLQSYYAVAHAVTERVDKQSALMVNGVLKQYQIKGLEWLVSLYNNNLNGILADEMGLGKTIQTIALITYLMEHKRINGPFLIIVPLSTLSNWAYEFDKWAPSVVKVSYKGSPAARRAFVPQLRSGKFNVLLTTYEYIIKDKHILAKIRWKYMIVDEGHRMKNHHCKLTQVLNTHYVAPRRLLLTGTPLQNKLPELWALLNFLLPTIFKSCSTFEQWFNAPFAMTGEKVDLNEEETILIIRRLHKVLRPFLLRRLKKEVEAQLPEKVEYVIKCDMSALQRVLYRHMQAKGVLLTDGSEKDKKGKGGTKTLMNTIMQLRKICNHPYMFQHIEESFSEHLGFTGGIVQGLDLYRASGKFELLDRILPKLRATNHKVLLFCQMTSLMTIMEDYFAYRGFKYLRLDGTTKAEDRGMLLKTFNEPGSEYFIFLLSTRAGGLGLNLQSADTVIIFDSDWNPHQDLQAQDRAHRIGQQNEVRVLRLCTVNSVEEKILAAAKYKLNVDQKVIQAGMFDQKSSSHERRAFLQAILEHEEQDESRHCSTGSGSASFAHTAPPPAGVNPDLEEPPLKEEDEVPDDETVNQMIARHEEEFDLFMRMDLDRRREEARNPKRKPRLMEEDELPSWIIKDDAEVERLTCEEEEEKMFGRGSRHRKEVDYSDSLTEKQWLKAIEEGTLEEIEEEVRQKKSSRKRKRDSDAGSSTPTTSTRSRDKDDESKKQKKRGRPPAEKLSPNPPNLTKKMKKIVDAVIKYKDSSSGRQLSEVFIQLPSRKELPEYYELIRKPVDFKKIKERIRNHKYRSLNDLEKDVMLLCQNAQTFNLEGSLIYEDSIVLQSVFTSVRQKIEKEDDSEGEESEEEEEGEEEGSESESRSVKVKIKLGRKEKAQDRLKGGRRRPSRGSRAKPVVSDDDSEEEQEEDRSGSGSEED
Chain of SMARCA2 (P51531 whole entry): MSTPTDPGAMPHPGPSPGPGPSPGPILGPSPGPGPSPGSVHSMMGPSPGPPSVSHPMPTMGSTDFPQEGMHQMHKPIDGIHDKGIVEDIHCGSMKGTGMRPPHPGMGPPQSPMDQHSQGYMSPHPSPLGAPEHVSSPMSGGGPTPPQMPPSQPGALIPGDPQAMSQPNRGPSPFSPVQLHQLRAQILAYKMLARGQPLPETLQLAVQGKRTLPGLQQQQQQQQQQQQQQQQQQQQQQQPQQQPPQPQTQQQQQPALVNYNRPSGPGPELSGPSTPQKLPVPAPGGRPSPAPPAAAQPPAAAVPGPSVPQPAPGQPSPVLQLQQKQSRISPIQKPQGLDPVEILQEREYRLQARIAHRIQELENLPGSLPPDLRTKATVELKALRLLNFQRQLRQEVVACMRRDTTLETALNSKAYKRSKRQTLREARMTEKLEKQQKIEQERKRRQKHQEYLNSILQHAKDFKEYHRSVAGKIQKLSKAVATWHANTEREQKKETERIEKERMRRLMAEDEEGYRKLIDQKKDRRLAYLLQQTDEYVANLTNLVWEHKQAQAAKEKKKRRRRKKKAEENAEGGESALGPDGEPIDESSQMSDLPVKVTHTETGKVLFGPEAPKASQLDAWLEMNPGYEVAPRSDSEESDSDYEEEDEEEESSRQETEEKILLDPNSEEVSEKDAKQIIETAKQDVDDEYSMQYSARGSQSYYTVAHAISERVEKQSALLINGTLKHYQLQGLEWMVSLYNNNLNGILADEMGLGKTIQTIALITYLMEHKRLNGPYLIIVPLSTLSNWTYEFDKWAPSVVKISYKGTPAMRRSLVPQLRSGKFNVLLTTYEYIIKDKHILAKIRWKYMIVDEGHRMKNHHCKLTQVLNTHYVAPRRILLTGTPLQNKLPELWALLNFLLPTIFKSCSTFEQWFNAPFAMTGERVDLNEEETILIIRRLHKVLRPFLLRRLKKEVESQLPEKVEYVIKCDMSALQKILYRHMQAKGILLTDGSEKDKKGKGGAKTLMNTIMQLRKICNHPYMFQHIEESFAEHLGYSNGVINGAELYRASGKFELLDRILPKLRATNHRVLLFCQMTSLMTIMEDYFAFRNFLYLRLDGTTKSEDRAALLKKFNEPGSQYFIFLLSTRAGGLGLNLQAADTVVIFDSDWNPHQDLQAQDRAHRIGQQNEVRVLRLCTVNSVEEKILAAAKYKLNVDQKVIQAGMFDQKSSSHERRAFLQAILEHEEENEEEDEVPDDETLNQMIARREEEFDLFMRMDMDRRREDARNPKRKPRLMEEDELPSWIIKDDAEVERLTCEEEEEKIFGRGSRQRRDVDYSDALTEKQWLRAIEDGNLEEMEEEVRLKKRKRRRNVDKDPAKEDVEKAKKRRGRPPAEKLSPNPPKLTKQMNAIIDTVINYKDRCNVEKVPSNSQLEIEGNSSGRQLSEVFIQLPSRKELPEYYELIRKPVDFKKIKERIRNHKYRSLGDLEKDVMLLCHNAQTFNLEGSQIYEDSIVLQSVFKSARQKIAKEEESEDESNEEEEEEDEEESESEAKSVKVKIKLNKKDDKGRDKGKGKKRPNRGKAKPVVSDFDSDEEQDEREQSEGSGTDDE

As for `Cc1ncsc1-c1ccc([C@H](CC(=O)NCCCN2CCC(c3ccc4c(c3)-n3c(nc(=O)c5c(Cl)cccc53)C4(C)C)CC2)NC(=O)[C@@H]2C[C@@H](O)CN2C(=O)[C@@H](NC(=O)C2(F)CC2)C(C)(C)C)cc1` [Compound B25, (2S,4R)-N-((S)-3-((3-(4-(4-chloro-7,7-dimethyl-5-oxo-5,7-dihydroindolo[1,2-a]quinazolin-10-yl)piperidin-1-yl)propyl)amino)-1-(4-(4-methylthiazol-5-yl)phenyl)-3-oxopropyl)-1-((S)-2-(1-fluorocyclopropane-1-carboxamido)-3,3-dimethylbutanoyl)-4-hydroxypyrrolidine-2-carboxamide], the DC50 lay within 501 to 1000 nM at SMARCA2 (HT1080 CRISPR knock-in cells) and 100 to 500 nM at SMARCA4 (HT1080 CRISPR knock-in cells). In addition, the Dmax on SMARCA2 and on SMARCA4 was under 50% in each case.

For `Cc1ncsc1-c1ccc([C@H](C)NC(=O)[C@@H]2C[C@@H](O)CN2C(=O)[C@@H](c2cc(OCC3CCC(N4CCC(c5cccc6c5C(C)(C)c5nc(=O)c7c(Cl)cccc7n5-6)CC4)CC3)no2)C(C)C)cc1` (stereo partly drawn) [Compound B100, (2S,4R)-1-((R)-2-(3-((4-(4-(4-chloro-7,7-dimethyl-5-oxo-5,7-dihydroindolo[1,2-a]quinazolin-8-yl)piperidin-1-yl)cyclohexyl)methoxy)isoxazol-5-yl)-3-methylbutanoyl)-4-hydroxy-N-((S)-1-(4-(4-methylthiazol-5-yl)phenyl)ethyl)pyrrolidine-2-carboxamide], the DC50 at SMARCA2 (HT1080 CRISPR knock-in cells) and at SMARCA4 (HT1080 CRISPR knock-in cells) was under 100 nM each time. In addition, the Dmax at SMARCA2 was 70 to 90%; at SMARCA4 it was under 50%.

Take `Cc1ncsc1-c1ccc([C@H](C)NC(=O)[C@@H]2C[C@@H](O)CN2C(=O)[C@@H](NC(=O)CCCn2cc(-c3ccc4c(c3)-n3c(nc(=O)c5c(Cl)cccc53)C4(C)C)cn2)C(C)(C)C)cc1` [Compound B83, (2S,4R)-1-((S)-2-(4-(4-(4-chloro-7,7-dimethyl-5-oxo-5,7-dihydroindolo[1,2-a]quinazolin-10-yl)-1H-pyrazol-1-yl)butanamido)-3,3-dimethylbutanoyl)-4-hydroxy-N-((S)-1-(4-(4-methylthiazol-5-yl)phenyl)ethyl)pyrrolidine-2-carboxamide]: the DC50 on SMARCA2 (HT1080 CRISPR knock-in cells) is 100 to 500 nM; at SMARCA4 (HT1080 CRISPR knock-in cells), over 1000 nM. In addition, the Dmax at SMARCA2 and on SMARCA4 was under 50% each time.

As for `Cc1ncsc1-c1ccc([C@H](C)NC(=O)[C@@H]2C[C@@H](O)CN2C(=O)[C@@H](NC(=O)CN2CCC(c3ccc4c(c3)C(C)(C)c3nc(=O)c5c(Br)cccc5n3-4)CC2)C(C)(C)C)cc1` [Compound B5, (2S,4R)-1-((S)-2-(2-(4-(4-bromo-7,7-dimethyl-5-oxo-5,7-dihydroindolo[1,2-a]quinazolin-9-yl)piperidin-1-yl)acetamido)-3,3-dimethylbutanoyl)-4-hydroxy-N—((S)-1-(4-(4-methylthiazol-5-yl)phenyl)ethyl)pyrrolidine-2-carboxamide], the DC50 on SMARCA2 (HT1080 CRISPR knock-in cells) and on SMARCA4 (HT1080 CRISPR knock-in cells) was under 100 nM throughout. For the same molecule, the Dmax at SMARCA2 and at SMARCA4 was over 90% in each case.

For `Cc1ncsc1-c1ccc([C@H](CC(=O)NCC2CCC(N3CCC(c4ccc5c(c4)-n4c(nc(=O)c6c(Cl)cccc64)C5(C)C)CC3)CC2)NC(=O)[C@@H]2C[C@@H](O)CN2C(=O)[C@@H](NC(=O)C2(F)CC2)C(C)(C)C)cc1` (stereo partly drawn) [Compound B54, (2S,4R)-N-((S)-3-(((4-(4-(4-chloro-7,7-dimethyl-5-oxo-5,7-dihydroindolo[1,2-a]quinazolin-10-yl)piperidin-1-yl)cyclohexyl)methyl)amino)-1-(4-(4-methylthiazol-5-yl)phenyl)-3-oxopropyl)-1-((S)-2-(1-fluorocyclopropane-1-carboxamido)-3,3-dimethylbutanoyl)-4-hydroxypyrrolidine-2-carboxamide], at SMARCA2 (HT1080 CRISPR knock-in cells), the “SMARC A2 HT1080 HiBit Dmax (%)” value is recorded as “D (D (<50% degradation))” and the DC50 is 100 to 500 nM. Besides, at SMARCA4 (HT1080 CRISPR knock-in cells), the “SMARC A4 HT1080 HiBit Dmax(%)” value is “D (D (<50% degradation))” and the DC50 fell in the range of 100 to 500 nM.

`Cc1ncoc1-c1ccc([C@H](C)NC(=O)[C@@H]2C[C@@H](O)CN2C(=O)[C@@H](n2cc([C@H]3CC[C@H](CN4CCN(c5ccc6c(c5)-n5c(nc(=O)c7c(Cl)cccc75)C6(C)C)CC4)CC3)nn2)C(C)(C)C)cc1` [Compound B126, (2S,4R)-1-((S)-2-(4-((1r,4S)-4-((4-(4-chloro-7,7-dimethyl-5-oxo-5,7-dihydroindolo[1,2-a]quinazolin-10-yl)piperazin-1-yl)methyl)cyclohexyl)-1H-1,2,3-triazol-1-yl)-3,3-dimethylbutanoyl)-4-hydroxy-N-((S)-1-(4-(4-methyloxazol-5-yl)phenyl)ethyl)pyrrolidine-2-carboxamide]: the DC50 at SMARCA2 (HT1080 CRISPR knock-in cells) and at SMARCA4 (HT1080 CRISPR knock-in cells) was under 100 nM in each case. The Dmax is over 90% at SMARCA2 and 50 to 69% on SMARCA4.

As for `Cc1ncsc1-c1ccc([C@H](CCCCCN2CCC(c3ccc4c(c3)C(C)(C)c3nc(=O)c5c(Br)cccc5n3-4)CC2)NC(=O)[C@@H]2C[C@@H](O)CN2C(=O)[C@@H](NC(=O)C2(F)CC2)C(C)(C)C)cc1` [Compound B2, (2S,4R)—N—((S)-6-(4-(4-bromo-7,7-dimethyl-5-oxo-5,7-dihydroindolo[1,2-a]quinazolin-9-yl)piperidin-1-yl)-1-(4-(4-methylthiazol-5-yl)phenyl)hexyl)-1-((S)-2-(1-fluorocyclopropane-1-carboxamido)-3,3-dimethylbutanoyl)-4-hydroxypyrrolidine-2-carboxamide], the DC50 on SMARCA2 (HT1080 CRISPR knock-in cells) and at SMARCA4 (HT1080 CRISPR knock-in cells) was under 100 nM in each case. Besides, the Dmax at SMARCA2 and on SMARCA4 was over 90% throughout.

As for `Cc1ncsc1-c1ccc([C@H](C)NC(=O)[C@@H]2C[C@@H](O)CN2C(=O)[C@@H](NC(=O)CCCCN2CCC(c3ccc4c(c3)-n3c(nc(=O)c5c(Cl)cccc53)C4(C)C)CC2)C(C)(C)C)cc1` [Compound B50, (2S,4R)-1-((S)-2-(5-(4-(4-chloro-7,7-dimethyl-5-oxo-5,7-dihydroindolo[1,2-a]quinazolin-10-yl)piperidin-1-yl)pentanamido)-3,3-dimethylbutanoyl)-4-hydroxy-N-((S)-1-(4-(4-methylthiazol-5-yl)phenyl)ethyl)pyrrolidine-2-carboxamide], the DC50 at SMARCA2 (HT1080 CRISPR knock-in cells) was 100 to 500 nM; on SMARCA4 (HT1080 CRISPR knock-in cells), over 1000 nM. The Dmax on SMARCA2 is 70 to 90%; on SMARCA4, under 50%.

For the molecule `Cc1ncsc1-c1ccc([C@H](C)NC(=O)[C@@H]2C[C@@H](O)CN2C(=O)C(c2cc(CCN3CCC(c4ccc5c(c4)C(C)(C)c4nc(=O)c6c(Cl)cccc6n4-5)CC3)no2)C(C)C)cc1` (stereo partly drawn) [Compound B15, (2S,4R)-1-(2-(3-(2-(4-(4-chloro-7,7-dimethyl-5-oxo-5,7-dihydroindolo[1,2-a]quinazolin-9-yl)piperidin-1-yl)ethyl)isoxazol-5-yl)-3-methylbutanoyl)-4-hydroxy-N-((S)-1-(4-(4-methylthiazol-5-yl)phenyl)ethyl)pyrrolidine-2-carboxamide], the DC50 at SMARCA2 (HT1080 CRISPR knock-in cells) and on SMARCA4 (HT1080 CRISPR knock-in cells) was under 100 nM in each case. In addition, the Dmax on SMARCA2 and on SMARCA4 was over 90% in each case.
